Data on 2 compounds can be found in ChEMBL document CHEMBL3580584, “Antibacterial Balsacones J-M, Hydroxycinnamoylated Dihydrochalcones from Populus balsamifera Buds” (J Nat Prod, 2015).

The subject of this experiment is Staphylococcus aureus. The experiment is described as follows: Antibacterial activity against Staphylococcus aureus ATCC 25923 assessed as growth inhibition after 24 hrs by microdilution method. The experiment is classed as functional, organism-based. On the technique in general: Dilution methods test growth across graded concentrations, often in twofold steps.

With `O=C(N[C@H](CO)[C@H](O)c1ccc([N+](=O)[O-])cc1)C(Cl)Cl` [CHLORAMPHENICOL], the IC50 (Staphylococcus aureus, ATCC 25923, 24 h) came to 430 nM.

Take GENTAMICIN: the IC50 was 10 nM.

What is called IC50 is the midpoint of a concentration-inhibition curve.
